Data as given in PMC5962729 (Frontiers in Pharmacology, 2018).

Legend:
Assay type in all cases: in vivo
[1] = tested on: BSEP; test: Expression level of BSEP in rat liver by UHPLC-MS/MS
Protocol: (§1) Male Sprague Dawley rats (230 ± 20 g, 6–8 weeks of age) were purchased from B&K Laboratory Animal, Corp. Ltd. (Shanghai, China) and fed in the Laboratory Animal Center of Shanghai University of Traditional Chinese Medicine. All rats were allowed to acclimatize for 3 days before experimentation. The rats were randomly divided into six groups (n = 5 for each group). […] Moreover, groups 1 and 2 were intragastrically treated with physiological saline (0.9%) at a dose of 1 mL/100 g. […] At the end of the experiment, all rats were euthanized by CO2 inhalation. The serum samples were stored at -70°C until analysis, and liver samples were isolated and stored at -70°C for further analysis, whereas the central part of the right large lobe of the liver was used for histological examination.
(§2) Biotransformation of xenobiotics and endogenous compounds is a crucial step in the absorption and elimination of potentially harmful substances from the human body, a process that could be affected by the levels of pharmacokinetic enzymes and transporter proteins. […]
(§3) Total membrane protein was isolated (in triplicate) from liver tissue according to the Native Membrane Protein Extraction Kit protocol. Subsequently, protein concentrations were determined by applying the BCA Protein Assay Kit. […]

[2] = tested on: OATP1A2; test: Expression level of OATP1A2 in rat liver by UHPLC-MS/MS
Protocol: (§4) Male Sprague Dawley rats (230 ± 20 g, 6–8 weeks of age) were purchased from B&K Laboratory Animal, Corp. Ltd. (Shanghai, China) and fed in the Laboratory Animal Center of Shanghai University of Traditional Chinese Medicine. All rats were allowed to acclimatize for 3 days before experimentation. The rats were randomly divided into six groups (n = 5 for each group). […] The rats in groups 4, 5, and 6 were intragastrically administered YCHD every 24 h for 10 consecutive days. The rats in group 3 were orally administered UDCA at a dose of 100 mg/kg every 24 h for 10 consecutive days, which is well-documented to treat induced liver injury and cholestasis ([Chen et al., 2016]; [Cao et al., 2017]). Moreover, groups 1 and 2 were intragastrically treated with physiological saline (0.9%) at a dose of 1 mL/100 g. […] At the end of the experiment, all rats were euthanized by CO2 inhalation. The serum samples were stored at -70°C until analysis, and liver samples were isolated and stored at -70°C for further analysis, whereas the central part of the right large lobe of the liver was used for histological examination. […]

[3] = tested on: NTCP; test: Expression level of NTCP in rat liver by UHPLC-MS/MS
Protocol: as §4

[4] = tested on: OCT1; test: Expression level of OCT1 in rat liver by UHPLC-MS/MS
Protocol: as §1, §2, §3

[5] = tested on: UGT1A1; test: Expression level of UGT1A1 in rat liver by UHPLC-MS/MS
Protocol: as §1, §2, §3

[6] = tested on: OATP1A4; test: Expression level of OATP1A4 in rat liver by UHPLC-MS/MS
Protocol: as §4

[7] = UDCA group, ANIT-treated rats, mean ± S.D.
[8] = UDCA-treated cholestatic rats, liver, as compared with the control group, p < 0.05

## C[C@H](CCC(=O)O)[C@H]1CC[C@H]2[C@@H]3[C@@H](O)C[C@@H]4C[C@H](O)CC[C@]4(C)[C@H]3CC[C@]12C [UDCA, Ursodeoxycholic acid]
[1]; [7]
  Bsep expression level in rat liver: 18.1±2.56 fmol/μg protein
[1]; [8]
  BSEP level, fold higher: 1.2 fold
[2]; [7]
  Oatp1a2 expression level in rat liver: 1.27±0.18 fmol/μg protein
[2]; [8]
  OATP1A2 level, fold higher: 1.5 fold
[3]; [7]
  Ntcp expression level in rat liver: 4.22±1.51 fmol/μg protein
[3]; [8]
  NTCP level, fold higher: 2.2 fold
[4]; [7]
  Oct1 expression level in rat liver: 2.22±0.59 fmol/μg protein
[4]; [8]
  OCT1 level, fold higher: 2.1 fold
[5]; [7]
  Ugt1a1 expression level in rat liver: 6.06±1.34 fmol/μg protein
[5]; UDCA-treated cholestatic rats, liver, as compared with the control group, p < 0.01
  UGT1A1 level, fold higher: 2.1 fold
[6]; [7]
  Oatp1a4 expression level in rat liver: 0.49±0.11 fmol/μg protein
[6]; UDCA-treated cholestatic rats, liver, not statistically significant
  OATP1A4 expression upregulated, fold: 1.3 fold
